In PMC12071940, “Shortened PGLYRP1 Peptides Regulate Antitumor Activity of Cytotoxic Lymphocytes via TREM-1 Receptor: From Biology to Bioinformatics” (International Journal of Molecular Sciences, 2025):
Ends that are not written are not given here.

Columns and labels:
[1] = system: tumor cells (K562); parameters: method as in printed at the place; details: other TREM-1 ligands, 'just as it was shown'; no ref given; cited from earlier work
[2] = system: MHC-negative tumor cells; details: ref [24,27,42]; cited from earlier work
Excerpt: The interaction of ligands with TREM-1 on the cell membrane leads to dimerization of the receptor, followed by activation of the metalloprotease MMP-9 [37], cleavage, and dissociation of the exodomain from the cell surface. sTREM-1 is considered a biomarker of infection and viral diseases. Further activation of the receptor develops in two ways. Triggering cascades of tyrosine kinases leads to activation of the NFkß factor, expression of pro-inflammatory cytokines, and development of inflammatory processes. In turn, the release of cytokines leads to the appearance of ...

[3] = system: K562 cells; test: Cytotoxic activity of human PBMC incubated 6 days with Tag7 peptides (single or combined), tested on K562 cells; assay type: cell-based; details: single peptide, 10^−9 M, human PBMC 6 days, then K562; n = 5
Procedure: The synthesized peptides were incubated with isolated human PBMC for 6 days. Thereafter, the activated lymphocytes were added to MHC-negative tumor cells of the K562 line, and their cytotoxic effect on these cells was determined.
(§1) The combined effect of these peptides stimulated the activation of cytotoxic lymphocytes. […] In addition, the induction of the cytotoxic effect of lymphocytes is TREM-1-dependent.
K562, RAW264.7 cells were cultivated in RPMI-1640 (Himedia Laboratories Private Limited, Maharashtra, India) with 2 mM L glutamine, 10% FCS (Invitrogen, Carlsbad, CA, USA), with 1% kanamycin (Thermo Fisher Scientific, Waltham, MA, USA). […] CD4+ (CD8+) T-lymphocytes were isolated from the PBMCs using the Dynabeads^TM Untouched^TM Human CD4 T Cells Kit, and NK cells were isolated from PBMC by Dynabeads^TM Untouched^TM Human NK Cells Kit according to the manufacturer’s protocol (Thermo Fisher Scientific, Waltham, MA, USA).
(§2) For cytotoxicity tests, cells of the K562 line were cultured in 96-well plates (Luoyang Fudau Biotech Co, Luoyang, Henan, China) (6 × 10^4 per well) before the addition of lymphocytes (1.2 × 10^6 per well) and then incubated at 37 °C in an atmosphere with 5% CO2 for 3–20 h. Cytotoxicity was measured using a Cytotox 96 analysis kit (Promega, Madison, WI, USA) after 24 h of incubation in accordance with the manufacturer’s protocol. […] Polyclonal antibodies to Tag7 were obtained from ABclonal (ABclonal, Woburn, MA, USA). Monoclonal antibodies to TREM-1 were obtained from Thermo Fisher Scientific (Thermo Fisher Scientific, Waltham, MA, USA).

[4] = system: TREM-1 receptor; test: Inhibition of cytotoxic activity of PBMC induced by peptide N3; assay type: cell-based, human; details: PBMC preincubated 1 h with peptide (10^−9 M), then N3 added; cytotoxicity after 6 days, K562
Procedure: The inhibitory and activating activities were investigated. To determine the inhibitory activity, PBMC were preincubated with the studied peptides for 1 h, then the activating peptide N3 was added, and the cytotoxic activity of lymphocytes was determined after 6 days.
as §2

[5] = system: TREM-1 receptor; test: Inhibition of cytotoxicity induced by the sum of N9 and N15 peptides; assay type: cell-based, human; details: PBMC with N9 + N15, 6 days; K562
Procedure: as §1, §2

Substance	type of tumor cell death induced [1]	stimulation of cytokines and activation of cytotoxic lymphocytes [2]	activation of cytotoxic lymphocytes [3]	inhibition of N3-stimulated cytotoxic activity [4]	inhibition of cytotoxicity of the sum of N9 and N15 [5]
Tag7: innate immunity protein PGLYRP1; recombinant Tag7	induced apoptosis and necroptosis in tumor cells	not only stimulate the production of pro-inflammatory cytokines but also induce the activation of cytotoxic lymphocytes against MHC-negative tumor cells			
HMGB1: multifunctional protein, TREM-1 ligand	induced apoptosis and necroptosis in tumor cells	not only stimulate the production of pro-inflammatory cytokines but also induce the activation of cytotoxic lymphocytes against MHC-negative tumor cells			
Hsp70: main heat shock protein, TREM-1 ligand	induced apoptosis and necroptosis in tumor cells	not only stimulate the production of pro-inflammatory cytokines but also induce the activation of cytotoxic lymphocytes against MHC-negative tumor cells			
RYVVVSHTAGSSCNT [N15]			do not activate cytotoxic lymphocytes	had no inhibitory effect on the induction of the TREM-1-dependent signal	
LQVTDSGLYRCVIYHPP [LP17, reference compound]					inhibited
RNVQHYHMKT [17.0]			do not activate cytotoxic lymphocytes	inhibited the development of cytotoxic activity stimulated by peptide N3	inhibited
PASCQQQAR [N9]			do not activate cytotoxic lymphocytes	inhibited the development of cytotoxic activity stimulated by peptide N3	
